We go through ten compounds from patent publication US11926613B2, “Kinase inhibitors for the treatment of central and peripheral nervous system disorders” (UNIVERSITY OF MIAMI, priority 2017, dated 2024).

Assay [1] concerns neurons from hippocampi of E18 rat embryos. Kind of assay: Neurite growth length (% NTL) in cultured E18 rat hippocampal neurons, 9-point dose response, 48 hours. It counts as cell-based. Particulars: for activity at 0.078 µM / activity at 0.156 µM / activity at 0.312 µM / activity at 0.625 µM / activity at 1.25 µM / activity at 2.5 µM / activity at 5 µM / activity at 10 µM / activity at 20 µM: Rattus norvegicus, Neuron, 48 h. An outline of the steps: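 % NTL comes from automated neurite tracing of βIII-tubulin-stained cells, with 200–300 or more neurons per condition. Compounds were given in a 9-point dilution series (20 μM to 0.078125 μM) for 48 h. Cells were trypsin-dissociated E18 rat hippocampal neurons plated at 1500/well on poly-D-lysine.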

The next assay relates to Primary Neurons. Briefly: HCS neurite outgrowth assay (High Content Screening with Primary Neurons). It is filed as cell-based.

Where two headings read alike, the source gives them in different places.

As a reminder, the EC50 is the concentration at which the effect is half-maximal. As to `COc1ccc(O)c(C(=O)c2ccc(C(=O)N[C@H]3CNC[C@@H]3NC(=O)c3ccncc3)cc2)c1F` (stereo in doubt) [Example A34, N-[(3S,4S)-4-[4-(2-fluoro-6-hydroxy-3-methoxybenzoyl)benzamido]pyrrolidin-3-yl]pyridine-4-carboxamide], the “neurite growth length (% NTL)” value in assay [1] (78 nM) is on record as 102.90 % NTL; in assay [1] (156 nM) it was 102.77 % NTL; in assay [1] (312 nM), 92.06 % NTL; in assay [1] (625 nM) it was 92.27 % NTL; in assay [1] (1.25 μM), 95.84 % NTL; in assay [1] (2.5 μM) it was 105.94 % NTL. Also, the “neurite growth length (% NTL)” value worked out at 110.06 % NTL in assay [1] (5 μM), 118.29 % NTL in assay [1] (10 μM) and 130.91 % NTL in assay [1] (20 μM). The compound further had an EC50 in the assay on Primary Neurons of 13 µM.
For `COc1ccc(O)c(C(=O)c2ccc(C(=O)NCCNC(=O)c3ccncc3)cc2)c1F` [Example A27, 4-(2-fluoro-6-hydroxy-3-methoxybenzoyl)-N-{2-[(pyridin-4-yl)formamido]ethyl}benzamide], the activity at 0.078 µM in assay [1] (78 nM) was 103%. Moreover, in assay [1] (156 nM), the activity at 0.156 µM is 101%. Moreover, in assay [1] (312 nM), the activity at 0.312 µM was 107%. Moreover, the activity at 0.625 µM in assay [1] (625 nM) was 118%. The activity at 1.25 µM in assay [1] (1.25 μM) worked out at 110%. In addition, in assay [1] (2.5 μM), the activity at 2.5 µM was found to be 105%. Besides, the activity at 5 µM in assay [1] (5 μM) worked out at 117%. Besides, the activity at 10 µM in assay [1] (10 μM) is 141%. Moreover, the activity at 20 µM in assay [1] (20 μM) was 150%. The same compound gave an EC50 in the assay on Primary Neurons (Primary neuron) of 7.9 µM.
Take `O=C(N[C@@H]1CNC[C@H]1NC(=O)c1ccc(C(=O)c2ccccc2O)c(Cl)c1)c1ccncc1` [Example A67, N-[(3R,4R)-4-[3-chloro-4-(2-hydroxybenzoyl)benzamido]pyrrolidin-3-yl]pyridine-4-carboxamide]: the activity at 0.078 µM in assay [1] (78 nM) worked out at 94.2%. Also, the activity at 0.156 µM in assay [1] (156 nM) amounted to 97.9%. In assay [1] (312 nM), the activity at 0.312 µM worked out at 104%. Moreover, in assay [1] (625 nM), the activity at 0.625 µM worked out at 104%. Moreover, in assay [1] (1.25 μM), the activity at 1.25 µM is 112%. For the same compound, the activity at 2.5 µM in assay [1] (2.5 μM) is 106%. Moreover, the activity at 5 µM in assay [1] (5 μM) was found to be 108%. In addition, in assay [1] (10 μM), the activity at 10 µM came to 120%. Moreover, in assay [1] (20 μM), the activity at 20 µM is 128%. Further, the EC50 in the assay on Primary Neurons (Primary neuron) was > 20 µM.
Take `COc1ccc(OC)c(C(=O)c2ccc(C(=O)N[C@@H]3c4ccccc4C[C@H]3NC(=O)c3ccncc3)cc2)c1F` [Example A12, N-[(1R,2R)-1-[4-(2-fluoro-3,6-dimethoxybenzoyl)benzamido]-2,3-dihydro-1H-inden-2-yl]pyridine-4-carboxamide]: the activity at 0.078 µM in assay [1] (78 nM) stood at 96.6%. For the same compound, the activity at 0.156 µM in assay [1] (156 nM) stood at 90.7%. Besides, the activity at 0.312 µM in assay [1] (312 nM) came to 91.2%. For the same compound, in assay [1] (625 nM), the activity at 0.625 µM was 93.1%. Moreover, in assay [1] (1.25 μM), the activity at 1.25 µM was found to be 90.6%. For the same compound, the activity at 2.5 µM in assay [1] (2.5 μM) was 91%. In assay [1] (5 μM), the activity at 5 µM amounted to 106%. The activity at 10 µM in assay [1] (10 μM) turned out to be 98.6%. For the same compound, in assay [1] (20 μM), the activity at 20 µM came to 119%. In addition, in the assay on Primary Neurons (Primary neuron), the 50% effective concentration (EC50) was > 20 µM.
In the case of `O=C(N[C@@H]1CNC[C@H]1NC(=O)c1ccc(C(=O)c2ccccc2O)cc1)c1ccncc1` [Example A86, N-[(3R,4R)-4-[4-(2-hydroxybenzoyl)benzamido]pyrrolidin-3-yl]pyridine-4-carboxamide], in assay [1] (78 nM), the activity at 0.078 µM worked out at 124%. The activity at 0.156 µM in assay [1] (156 nM) was 135%. In assay [1] (312 nM), the activity at 0.312 µM turned out to be 126%. Besides, in assay [1] (625 nM), the activity at 0.625 µM amounted to 134%. Moreover, the activity at 1.25 µM in assay [1] (1.25 μM) was 136%. For the same compound, the activity at 2.5 µM in assay [1] (2.5 μM) came to 158%. The activity at 5 µM in assay [1] (5 μM) came to 185%. Besides, in assay [1] (10 μM), the activity at 10 µM stood at 271%. In addition, in assay [1] (20 μM), the activity at 20 µM worked out at 379%. Further, the EC50 with Primary Neurons (Primary neuron) was found to be 11.9 µM.
`COc1ccc(O)c(C(=O)c2ccc(C(=O)N[C@@H]3CNC[C@H]3NC(=O)c3ccc(O)nc3)cc2)c1F` [Example A39, N-[(3R,4R)-4-[4-(2-fluoro-6-hydroxy-3-methoxybenzoyl)benzamido]pyrrolidin-3-yl]-6-hydroxypyridine-3-carboxamide]: the activity at 0.078 µM in assay [1] (78 nM) turned out to be 96.3%. In assay [1] (156 nM), the activity at 0.156 µM worked out at 93%. In addition, the activity at 0.312 µM in assay [1] (312 nM) was determined as 85.5%. For the same compound, the activity at 0.625 µM in assay [1] (625 nM) came to 80.5%. In assay [1] (1.25 μM), the activity at 1.25 µM was found to be 83%. Also, in assay [1] (2.5 μM), the activity at 2.5 µM was determined as 87.3%. The activity at 5 µM in assay [1] (5 μM) stood at 98%. The activity at 10 µM in assay [1] (10 μM) was determined as 98.9%. In assay [1] (20 μM), the activity at 20 µM was found to be 101%. Also, a half-maximal effect with Primary Neurons (Primary neuron) (EC50) was put at 3.76 µM.
For the compound `COc1ccc(OC)c(C(=O)c2ccc(C(=O)O[C@@H]3CN(C)C[C@H]3NC(=O)c3ccncc3)cc2)c1F` [Example A28, (3R,4R)-1-methyl-4-(pyridine-4-amido)pyrrolidin-3-yl 4-(2-fluoro-3,6-dimethoxybenzoyl)benzoate], in assay [1] (78 nM), the activity at 0.078 µM was 97.8%. The activity at 0.156 µM in assay [1] (156 nM) was 113%. Moreover, the activity at 0.312 µM in assay [1] (312 nM) worked out at 103%. For the same compound, in assay [1] (625 nM), the activity at 0.625 µM is 83.7%. In assay [1] (1.25 μM), the activity at 1.25 µM is 103%. In addition, the activity at 2.5 µM in assay [1] (2.5 μM) was 118%. In addition, the activity at 5 µM in assay [1] (5 μM) worked out at 133%. Further, in assay [1] (10 μM), the activity at 10 µM worked out at 137%. The activity at 20 µM in assay [1] (20 μM) is 139%. The compound also returned an EC50 with Primary Neurons (Primary neuron) of 4.72 µM.
For the compound `COc1ccc(C(=O)c2ccc(C(=O)N[C@@H]3CNC[C@H]3NC(=O)c3ccnc(N)n3)cc2)c(O)c1` [Example A82, 2-amino-N-[(3R,4R)-4-[4-(2-hydroxy-4-methoxybenzoyl)benzamido]pyrrolidin-3-yl]pyrimidine-4-carboxamide], in assay [1] (78 nM), the activity at 0.078 µM was determined as 107%. Also, the activity at 0.156 µM in assay [1] (156 nM) stood at 115%. Besides, the activity at 0.312 µM in assay [1] (312 nM) stood at 117%. In addition, the activity at 0.625 µM in assay [1] (625 nM) came to 124%. Besides, the activity at 1.25 µM in assay [1] (1.25 μM) was found to be 122%. Also, the activity at 2.5 µM in assay [1] (2.5 μM) was found to be 120%. Also, the activity at 5 µM in assay [1] (5 μM) stood at 120%. The activity at 10 µM in assay [1] (10 μM) was 131%. Moreover, the activity at 20 µM in assay [1] (20 μM) worked out at 117%. Besides, the EC50 in the assay with Primary Neurons (Primary neuron) came to 0.154 µM.
With `COc1ccc(O)c(C(=O)c2ccc(C(=O)N[C@@H]3CNC[C@H]3NC(=O)c3ccnc(O)c3)cc2)c1F` [Example A40, N-[(3R,4R)-4-[4-(2-fluoro-6-hydroxy-3-methoxybenzoyl)benzamido]pyrrolidin-3-yl]-2-hydroxypyridine-4-carboxamide], the activity at 0.078 µM in assay [1] (78 nM) stood at 86.3%. Also, the activity at 0.156 µM in assay [1] (156 nM) was 91.2%. The activity at 0.312 µM in assay [1] (312 nM) was determined as 86.2%. In addition, in assay [1] (625 nM), the activity at 0.625 µM amounted to 86.2%. Further, the activity at 1.25 µM in assay [1] (1.25 μM) stood at 94.1%. The activity at 2.5 µM in assay [1] (2.5 μM) came to 108%. Also, the activity at 5 µM in assay [1] (5 μM) came to 101%. The activity at 10 µM in assay [1] (10 μM) amounted to 106%. In addition, the activity at 20 µM in assay [1] (20 μM) came out at 121%. Besides, in the assay on Primary Neurons (Primary neuron), the concentration giving a half-maximal response (EC50) turned out to be 9.62 µM.
As for `O=C(N[C@@H]1CNC[C@H]1NC(=O)c1ccc(C(=O)c2ccccc2)cc1)c1ccncc1` (stereo in doubt) [Example A13, N-[(3R,4R)-4-(4-benzoylbenzamido)pyrrolidin-3-yl]pyridine-4-carboxamide], the activity at 0.078 µM in assay [1] (78 nM) came to 99.5%. Moreover, the activity at 0.156 µM in assay [1] (156 nM) is 101%. In assay [1] (312 nM), the activity at 0.312 µM amounted to 97.7%. Also, the activity at 0.625 µM in assay [1] (625 nM) amounted to 103%. In addition, the activity at 1.25 µM in assay [1] (1.25 μM) came out at 106%. Moreover, the activity at 2.5 µM in assay [1] (2.5 μM) worked out at 113%. In addition, the activity at 5 µM in assay [1] (5 μM) is 120%. Besides, the activity at 10 µM in assay [1] (10 μM) worked out at 129%. Moreover, the activity at 20 µM in assay [1] (20 μM) worked out at 147%. This compound also registered an EC50 in the assay with Primary Neurons (Primary neuron) of 4.96 µM.
